Patent US20230372356A1, “CLOMIPRAMINE FOR THE TREATMENT OF ALZHEIMER'S DISEASE” (National Institute of Immunology, priority 2022, published 2023)

Experiments:
[1] = system: Aβ42-treated cortical neurons; assay: Western blot of lysates of Aβ42-treated rat cortical neurons treated with clomipramine; assay type: cell-based; settings: for cell cycle related neuronal apoptosis by immunoblotting (PCNA, cleaved caspase-3): 48 h (FIGS. 3D-3F)
Excerpt: The effect of clomipramine on cell cycle related neuronal apoptosis (CRNA) was investigated in Aβ42-treated cortical neurons (Aβ42 peptide induces neurodegeneration in AD patients). The TAp73 levels were restored upon clomipramine treatment (FIG. 1A). […] FIGS. 1B, 1C, and 1D show the quantification of TAp73, PCNA, and cleaved caspase-3 levels of the Western blot of FIG. 1A.
To determine an effective concentration of clomipramine, Aβ42 treated rat cortical neurons were subjected to different concentrations (10 nM to 100 nM) of clomipramine for 48 h. Lysates were prepared and immunoblotting was performed.
After 48 h, one set of cells were lysed, lysates were prepared and the lysates were subjected to immunoblotting.

[2] = system: AD transgenic mouse model (Tg) cortical neurons; assay: Western blot of cortical neuron lysate from AD transgenic mouse model (Tg) treated with clomipramine; assay type: cell-based; settings: Western blot (FIG. 2A)
Excerpt: The effect of clomipramine on cell cycle related neuronal apoptosis (CRNA) was also explored in AD transgenic mouse model (Tg) cortical neurons (in this mouse model, there is an increased production of Aβ42 which induces neurodegeneration similar to AD patients).

TAp73 = assay: Immunoprecipitation of TAp73 and ubiquitination blot in presence of proteasome inhibitor MG132; assay type: cell-based, rat; settings: TAp73 immunoprecipitated in presence of MG132 (FIG. 2B)
[3] = system: Aβ42 treated cortical neurons; assay: BrdU incorporation / TUNEL labelling of Aβ42-treated cortical neurons; assay type: cell-based, rat
Description: Subsequently, BrdU incorporation and TUNEL labelling was performed to detect DNA replication and apoptosis, respectively. […] These findings indicate that clomipramine inhibits CRNA in AD neurons by preventing TAp73 degradation.
To another set of cells, BrdU was added after 48 h to label the neurons undergoing the replication (cell cycle re-entry). After that TUNEL assay was performed to label the cells undergoing apoptosis (FIG. 3G). The number of double positive cells were scored and plotted in the graph (FIG. 3H).

[4] = system: APP/PS1 transgenic (TgAD) mouse model for AD; assay: Morris water maze test in TgAD mice; assay type: in vivo; settings: 25 mg/kg I.P. for 45 days
Description: (§1) Next, the effect of clomipramine was tested in an in vivo mouse model of AD. For this, Amyloid Precursor Protein (APP)/Presenillin 1 (PS1) transgenic (TgAD) mouse model for AD (strain name B6C3-Tg APPswe, PSEN1dE9 85Dboa; stock number 004462) was used. Wild type and transgenic (TgAD) mice were genotyped using genomic DNA isolated from mouse tail and PCR primers according to the Jackson laboratory protocol. Clomipramine hydrochloride, obtained from Sigma (C-7291), was dissolved in ultrapure MQ just before the injection and 100 μl of this solution was injected intraperitonially (I.P.injections) to each mouse of 23-25 g in weight (25 mg/kg body weight) for 45 days. Various behaviour tests (Morris water maze, Y-maze and Radial arm maze) were performed on clomipramine/saline injected mice.
For Morris water maze test, animals were subjected to three trials per session and one session a day, for five days. Each trial was for 60 s in which mice had to reach the hidden platform in the water, and the average time per session was recorded as escape latency. After the escape training, the platform was removed for the probe trial test. It tested the retention of spatial memory at 24 h after training (Vorhees and Williams 2006, Nunez 2008). The number of times a mouse crossed the probe, the time spent in the target quadrant, and swim speed were recorded using ANY-maze software (Stoelting Co., USA).
For in vivo studies, ˜6 months old WT/TgAD mice were intraperitonially injected with 25 mg/kg body weight of clomipramine for 45 days (FIG. 4A) and subjected to various behavior tests. […] After five days of training, probe trial was performed and observed that WT mice spent […] time searching for the platform in the area of previous location (target quadrant) than the TgAD reflected by FIG. 5B. […] These observations indicate improved spatial learning in TgAD mice upon clomipramine treatment.

[5] = system: APP/PS1 transgenic (TgAD) mouse model for AD; assay: Y-maze test in TgAD mice; assay type: in vivo
Description: as §1
For Y-Maze test, animals were habituated in the Y-shaped maze for 3 min with one of the arms blocked then their spontaneous alternations were recorded with all arms open for 5 min (Miedel, Patton et al. 2017). The number of alternations was recorded manually and percent spontaneous alternations were calculated as mentioned below: […]
Y-maze test is an initial test of memory function. […] The memory function was tested when the animal was returned to the maze with all arms open and the tendency to spend time in the new or familiar arms was monitored.

[6] = system: APP/PS1 transgenic (TgAD) mouse model for AD; assay: Radial arm (8-arm) maze test in TgAD mice; assay type: in vivo
Description: as §1, with “Various behaviour tests (Morris water maze, Y-maze and Radial arm maze) were performed on clomipramine/saline injected mice.” left out
For radial arm (8-arm) maze test, mice were given restricted amount of food until their bodyweight reduced to 85% of the initial weight for two days prior to habituation in the maze. […] On the test day, all arms were opened and same five arms were baited as in trial sessions and their series of entries were recorded manually (Miyakawa, Yamada et al. 2001), from which the percentage of working and reference memory errors were calculated. The mouse entering an arm containing food where it had previously entered, was counted as working memory error (short term memory) and if the mouse entered in an arm without bait, was counted as reference memory error (long term memory for position of the baited arms). […]

[7] = Tolerability of chronic clomipramine treatment in WT/TgAD mice; assay type: in vivo, mouse
Description: as §1
Radial arm maze test was also performed to assess the long term as well as short term memory of mice (Penley, Gaudet et al. 2013, Fredriksson, Sreedharan et al. 2019). For this purpose, the 24 h food deprived mice were placed on the central platform of 8-arm maze and allowed to explore the maze for food (bait) placed at the end of each arm as depicted in FIG. 8A. Each training/testing session was 10 min long. […] TgAD mice group committed more reference and working memory errors than WT.

TgAD cortex = assay: Western blot of cortex region of brain of clomipramine-treated TgAD mice; assay type: in vivo, mouse
Description: The animals used in the above-mentioned behavioral tests were euthanized and cortex region of brain was dissected out for biochemical analysis. The levels of Itch, TAp73, PCNA and cleaved caspase-3 were determined with Western blotting (FIG. 9A). FIGS. 9B-9F show the quantification of the levels of Itch, TAp73, PCNA and cleaved caspase-3 of the Western blot of FIG. 9A. After analysis of six animals from each group, it was observed that TAp73 protein levels, which were reduced in TgAD cortex, were much higher in clomipramine treated TgAD brains. […] Importantly, CRNA which is exacerbated in TgAD cortex was reversed in clomipramine-treated mice as indicated by decrease in PCNA and cleaved caspase 3 (FIG. 9A).

[8] = 4 groups of mice treated with clomipramine and saline, 25 mg/kg I.P. 45 days
[9] = TgAD mice, 25 mg/kg I.P. 45 days (FIG. 9A)

CN(C)CCCN1c2ccccc2CCc2ccc(Cl)cc21 [clomipramine]
cell cycle related neuronal apoptosis by immunoblotting (PCNA, cleaved caspase-3) ([1]; 75 nM clomipramine): effective in reducing cell cycle related neuronalapoptosis
TAp73 levels ([1]; 75 nM clomipramine, 48 h, tested 10 nM to 100 nM (FIG. 3C)): restoration in TAp73 levels was observed
cell cycle related neuronal apoptosis by immunoblotting (PCNA, cleaved caspase-3) ([1]; 100 nM clomipramine): more apoptosis was observed
TAp73 levels ([1]; 100 nM clomipramine, 48 h, tested 10 nM to 100 nM (FIG. 3C)): restoration in TAp73 levels was observed
TAp73 levels ([1]; Aβ42-treated cortical neurons, Western blot (FIG. 1A, 1B)): restored
PCNA (cell cycle re-entry) ([1]; Aβ42-treated cortical neurons, Western blot (FIG. 1A, 1C)): significant decrease
cleaved caspase 3 (apoptosis) ([1]; Aβ42-treated cortical neurons, Western blot (FIG. 1A, 1D)): significant decrease
PCNA (cell cycle re-entry) [2]: significant decrease
TAp73 levels [2]: restored
cleaved caspase 3 (apoptosis) [2]: significant decrease
ubiquitination of TAp73 (TAp73): less ubiquitination of TAp73
BrdU/TUNEL double positive cells (CRNA) ([3]; 75 nM compared with 100 nM clomipramine, 48 h (FIGS. 3G, 3H)): more potent in preventing CRNA
BrdU+/TUNEL+ cells (CRNA) ([3]; Aβ42 treated cortical neurons (FIGS. 3A, 3B)): significant reduction
Morris water maze: time to reach the hidden platform (escape latency) ([4]; five days of training (FIG. 4B)): marked improvement
Morris water maze: escape latency on the last day of training ([4]; last day (FIGS. 4B, 4C, 5A)): almost similar to the WT mice
Morris water maze probe trial: crossing of target quadrant area ([4]; platform removed (FIG. 5B)): more frequently, almost similar to WT mice
Y-maze spontaneous alternation ([5]; TgAD mice, 25 mg/kg I.P. for 45 days, compared to TgAD): improvement of spontaneous alternation
Y-maze total number of arm entries ([5]; all groups, 25 mg/kg I.P. for 45 days (FIG. 7C)): no significant changes
Radial arm maze reference memory errors (long term memory) ([6]; 25 mg/kg I.P. for 45 days (FIG. 8B)): significant improvement
Radial arm maze working memory errors (short term memory) ([6]; 25 mg/kg I.P. for 45 days (FIG. 8C)): significant improvement
food intake [7, 8]: No significant differences
water intake [7, 8]: No significant differences
side effects of chronic treatment ([7]; mice, 25 mg/kg I.P. for 45 days): no major side effects
swimming speed ([7]; wild-type mice, clomipramine vs saline (FIG. 6A), p>0.05): almost unchanged
body weight ([7]; wild-type mice, clomipramine vs saline (FIG. 6B), p>0.05): almost unchanged
learning and memory abilities ([7]; wild-type mice, clomipramine vs saline, p>0.05): almost unchanged
TAp73 protein levels in cortex (TgAD cortex; TgAD brains, 25 mg/kg I.P. 45 days, six animals per group (FIGS. 9A, 9B)): much higher
PCNA in cortex (CRNA) (TgAD cortex; [9]): decrease
cleaved caspase 3 in cortex (CRNA) (TgAD cortex; [9]): decrease
